Measurements as given in US8192962B2, “Processes for detecting toxic substances” (Daikin Industries, Ltd., priority 2001, dated 2012).

System: Mitochondria-located protein genes
Experiment: DNA chip mRNA expression in yeast, mitochondria-located protein genes (Table 2)
Assay type: cell-based, Saccharomyces cerevisiae S288C
Settings: cells incubated two hours with the chemical substance
Experimental: Yeast (Saccharomyces cerevisiae S288C (α SUC2mal mel gap2 CUP1)) were incubated at 25° C. on YPD medium (yeast extract 1%, polypepton 2%, glucose 2%). One of toxic chemical substances was added to the cells at logarithmic growth phase, and the cells were further incubated for two hours. Cells were cultured without any chemical substance in the same condition, and were used as control. Concentrations of the chemical substances were defined to inhibit the growth of the yeast but not lead to death.
After completion of the incubation, the culture was centrifuged to collect the cells. To the cells, sodium acetate buffer (50 mM sodium acetate, 10 mM EDTA, 1% SDS) was added, and the mixture was shaken at 65° C. for five minutes, followed by returning to room temperature, and obtaining the supernatant, of which the procedures were repeated two times. To the supernatant, ½ amount of a solution of phenol/chloroform was added, and the mixture was centrifuged to give a supernatant, which was added with an equal amount of chloroform, and the mixture was centrifuged to give a supernatant. To the supernatant, an equal amount of isopropanol containing 0.3 M sodium acetate was added, and the mixture was allowed to stand at room temperature for 30 minutes, after which the mixture was centrifuged to give a sediment of the whole RNAs. Seventy % ethanol was added to the sediment, and the mixture was again centrifuged to give a sediment, which was then dried and dissolved in water. mRNA was isolated from the whole RNAs as followings. In view of the fact that a poly A chain is attached to the 3′ terminus of mRNA, a polynucleotide having a poly T structure which was immobilized on the surface of latex beads was used to trap the mRNA, and then the mRNA was washed and eluted with spine column (Oligotex-dT30<Super>mRNA Purification Kit, Takara). Reverse transcription of the mRNA was conducted with a reverse transcriptase (Super Script II Reverse Transcriptase; catalogue No. 18064-014, GibcoBRL) using fluorescence-labeled nucleotides to give cDNAs that were introduced with Cy3-dUTP or Cy5-dUTP during the reverse transcription.
The labeled cDNAs were dissolved in TE buffer (10mM Tris-HCl/1 mM EDTA, pH8.0), and the solution was dropped on the DNA chip containing the whole genes of yeast (DNA Chip Research Inc. Japan) so that the cDNAs were hybridized on the DNA chip at 65° C. for over 12 hours. The fluoresces intensity of the DNA chip was read with a scanner, and the ratio relative to the fluorescence intensity resulting from the absence of chemical substance was estimated as the following, which is shown in Tables 1 to 9: […]

## [Cl][Hg][Cl] [(3), HgCl2]
Yeast gene YAL039C
  The level of expressed mRNA in the presence of chemical substance/The level of expressed mRNA in the absence of chemical substance: 1.7
Yeast gene YBL022C
  The level of expressed mRNA in the presence of chemical substance/The level of expressed mRNA in the absence of chemical substance: 1.2
Yeast gene YBL030C
  The level of expressed mRNA in the presence of chemical substance/The level of expressed mRNA in the absence of chemical substance: 4.5
Yeast gene YBL038W
  The level of expressed mRNA in the presence of chemical substance/The level of expressed mRNA in the absence of chemical substance: 0.5
Yeast gene YBL099W
  The level of expressed mRNA in the presence of chemical substance/The level of expressed mRNA in the absence of chemical substance: 3.1
Yeast gene YBR003W
  The level of expressed mRNA in the presence of chemical substance/The level of expressed mRNA in the absence of chemical substance: 1.0
Yeast gene YBR044C
  The level of expressed mRNA in the presence of chemical substance/The level of expressed mRNA in the absence of chemical substance: 0.7
Yeast gene YBR091C
  The level of expressed mRNA in the presence of chemical substance/The level of expressed mRNA in the absence of chemical substance: 0.6
Yeast gene YBR122C
  The level of expressed mRNA in the presence of chemical substance/The level of expressed mRNA in the absence of chemical substance: 0.3
Yeast gene YBR185C
  The level of expressed mRNA in the presence of chemical substance/The level of expressed mRNA in the absence of chemical substance: 1.3
Yeast gene YBR221C
  The level of expressed mRNA in the presence of chemical substance/The level of expressed mRNA in the absence of chemical substance: 3.2
Yeast gene YBR251W
  The level of expressed mRNA in the presence of chemical substance/The level of expressed mRNA in the absence of chemical substance: 1.0
Yeast gene YBR282W
  The level of expressed mRNA in the presence of chemical substance/The level of expressed mRNA in the absence of chemical substance: 0.5
Yeast gene YCL057W
  The level of expressed mRNA in the presence of chemical substance/The level of expressed mRNA in the absence of chemical substance: 2.3
Yeast gene YCR046C
  The level of expressed mRNA in the presence of chemical substance/The level of expressed mRNA in the absence of chemical substance: 1.2
Yeast gene YCR083W
  The level of expressed mRNA in the presence of chemical substance/The level of expressed mRNA in the absence of chemical substance: 1.5
Yeast gene YDL067C
  The level of expressed mRNA in the presence of chemical substance/The level of expressed mRNA in the absence of chemical substance: 1.6
Yeast gene YDL181W
  The level of expressed mRNA in the presence of chemical substance/The level of expressed mRNA in the absence of chemical substance: 1.9
Yeast gene YDL198C
  The level of expressed mRNA in the presence of chemical substance/The level of expressed mRNA in the absence of chemical substance: 2.1
Yeast gene YDR079W
  The level of expressed mRNA in the presence of chemical substance/The level of expressed mRNA in the absence of chemical substance: 0.8
Yeast gene YDR178W
  The level of expressed mRNA in the presence of chemical substance/The level of expressed mRNA in the absence of chemical substance: 3.4
Yeast gene YDR231C
  The level of expressed mRNA in the presence of chemical substance/The level of expressed mRNA in the absence of chemical substance: 1.0
Yeast gene YDR258C
  The level of expressed mRNA in the presence of chemical substance/The level of expressed mRNA in the absence of chemical substance: 2.8
Yeast gene YDR298C
  The level of expressed mRNA in the presence of chemical substance/The level of expressed mRNA in the absence of chemical substance: 2.6
Yeast gene YDR347W
  The level of expressed mRNA in the presence of chemical substance/The level of expressed mRNA in the absence of chemical substance: 0.9
Yeast gene YDR377W
  The level of expressed mRNA in the presence of chemical substance/The level of expressed mRNA in the absence of chemical substance: 1.3
Yeast gene YDR529C
  The level of expressed mRNA in the presence of chemical substance/The level of expressed mRNA in the absence of chemical substance: 0.9
Yeast gene YEL024W
  The level of expressed mRNA in the presence of chemical substance/The level of expressed mRNA in the absence of chemical substance: 3.8
Yeast gene YEL039C
  The level of expressed mRNA in the presence of chemical substance/The level of expressed mRNA in the absence of chemical substance: 1.3
Yeast gene YER178W
  The level of expressed mRNA in the presence of chemical substance/The level of expressed mRNA in the absence of chemical substance: 3.6
Yeast gene YFL016C
  The level of expressed mRNA in the presence of chemical substance/The level of expressed mRNA in the absence of chemical substance: 1.6
Yeast gene YGL018C
  The level of expressed mRNA in the presence of chemical substance/The level of expressed mRNA in the absence of chemical substance: 1.8
Yeast gene YGL187C
  The level of expressed mRNA in the presence of chemical substance/The level of expressed mRNA in the absence of chemical substance: 1.6
Yeast gene YGL191W
  The level of expressed mRNA in the presence of chemical substance/The level of expressed mRNA in the absence of chemical substance: 1.4
Yeast gene YGR008C
  The level of expressed mRNA in the presence of chemical substance/The level of expressed mRNA in the absence of chemical substance: 1.7
Yeast gene YGR028W
  The level of expressed mRNA in the presence of chemical substance/The level of expressed mRNA in the absence of chemical substance: 1.0
Yeast gene YGR062C
  The level of expressed mRNA in the presence of chemical substance/The level of expressed mRNA in the absence of chemical substance: 0.7
Yeast gene YGR076C
  The level of expressed mRNA in the presence of chemical substance/The level of expressed mRNA in the absence of chemical substance: 0.6
Yeast gene YGR082W
  The level of expressed mRNA in the presence of chemical substance/The level of expressed mRNA in the absence of chemical substance: 2.2
Yeast gene YGR174C
  The level of expressed mRNA in the presence of chemical substance/The level of expressed mRNA in the absence of chemical substance: 0.6
Yeast gene YGR244C
  The level of expressed mRNA in the presence of chemical substance/The level of expressed mRNA in the absence of chemical substance: 1.6
Yeast gene YHR008C
  The level of expressed mRNA in the presence of chemical substance/The level of expressed mRNA in the absence of chemical substance: 4.8
Yeast gene YIL155C
  The level of expressed mRNA in the presence of chemical substance/The level of expressed mRNA in the absence of chemical substance: 1.4
Yeast gene YJL096W
  The level of expressed mRNA in the presence of chemical substance/The level of expressed mRNA in the absence of chemical substance: 0.8
Yeast gene YJL102W
  The level of expressed mRNA in the presence of chemical substance/The level of expressed mRNA in the absence of chemical substance: 0.4
Yeast gene YJL133W
  The level of expressed mRNA in the presence of chemical substance/The level of expressed mRNA in the absence of chemical substance: 2.0
Yeast gene YJL166W
  The level of expressed mRNA in the presence of chemical substance/The level of expressed mRNA in the absence of chemical substance: 1.6
Yeast gene YJL180C
  The level of expressed mRNA in the presence of chemical substance/The level of expressed mRNA in the absence of chemical substance: 1.1
Yeast gene YJR045C
  The level of expressed mRNA in the presence of chemical substance/The level of expressed mRNA in the absence of chemical substance: 3.9
Yeast gene YJR077C
  The level of expressed mRNA in the presence of chemical substance/The level of expressed mRNA in the absence of chemical substance: 2.0
